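Following 48 hours of exposure in 96-well plates, responses at five concentrations were used to interpolate endpoints linearly. TGI denotes the concentration required for complete inhibition of growth.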
Assays:
Experiment in all cases: inhibition of tumour cell growth, NCI panel, 48 h
[1] = test system: OVCAR-8 ovarian
[2] = test system: NCI-H522 lung
[3] = test system: IGROV1 ovarian
[4] = test system: RXF 393 renal
[5] = test system: U251 CNS
[6] = test system: HS 578T breast
[7] = test system: MCF7 breast
[8] = test system: NCI-H226 lung
[9] = test system: UO-31 renal
[10] = test system: RPMI-8226 leukemia
[11] = test system: 786-0 renal
[12] = test system: CAKI-1 renal
[13] = test system: NCI-H23 lung
[14] = test system: BT-549 breast
[15] = test system: HT29 colon
[16] = test system: A498 renal
[17] = test system: SR leukemia
[18] = test system: SF-295 CNS
[19] = test system: HL-60(TB) leukemia

SMILES	TGI [1] [µM]	TGI [2] [µM]	TGI [3] [µM]	TGI [4] [µM]	TGI [5] [µM]	TGI [6] [µM]	TGI [7] [µM]	TGI [8] [µM]	TGI [9] [µM]	TGI [10] [µM]	TGI [11] [µM]	TGI [12] [µM]	TGI [13] [µM]	TGI [14] [µM]	TGI [15] [µM]	TGI [16] [µM]	TGI [17] [µM]	TGI [18] [µM]	TGI [19] [µM]
N#CCCN(CCC#N)c1ccc(C(N=Nc2ccc(Cl)cc2)=Nc2ccc(Cl)cc2)cc1	31.4	32.5	28.1	29.1	33.2	35.2	24.7	36.7	29.4	> 100	34.7	45.2	41.8	36.3	44.6	43.3	> 100	29.2	
Cc1ccc([N+](=O)[O-])cc1S(=O)(=O)Nc1ccc(C2=NN(S(=O)(=O)c3cc([N+](=O)[O-])ccc3C)C(c3ccco3)C2)cc1 (configuration not stated)	> 100	> 100	> 100	> 100		> 100	> 100	> 100	> 100	> 100	> 100	> 100	> 100	97.5	> 100		> 100	> 100	98.2
CCCCCCCCCCCCCCCCOc1ccc(/C=C/C2=[N+](CCCl)CCO2)cc1	> 100	> 100	> 100		> 100	> 100	> 100	> 100	> 100	> 100	> 100	> 100		> 100	> 100	> 100	92.5	> 100	98.6
CCN(CC)CCNC(=O)c1nn(-c2ccc(Cl)cc2)c2c1CCc1cc(OC)ccc1-2	28.2	11	26.6	8.99	17.8	13.8		24.2	9.24	8.72	12	19.9	25.8	32.1	6.7	21.9	22	7.37	14.5
NC(=O)C1CCCN1C(=O)N(CCCl)N=O (configuration not stated)	> 100	> 100	> 100		> 100	> 100	> 100	> 100	> 100	> 100	> 100	> 100	> 100	> 100	> 100	> 100	> 100	> 100	> 100
O[C@H]1[C@H](O)[C@@H](Cn2nnc(-c3ccccc3)c2-c2ccccc2)OCO[C@@H]1Cn1nnc(-c2ccccc2)c1-c1ccccc1	18.1	21.5	14.2	9.41	> 41	33.2	11.5	> 45.4	17	5.79	7.39	14.2	26.2	23.7	3.61	16		13	> 24
C=CCN1C[C@@H](C)N([C@@H](c2ccc(C(=O)N(CC)CC)cc2)c2cccc(OC)c2)C[C@@H]1C	> 100	> 100	> 100		> 100	> 100	> 100	> 100	> 100	> 100	> 100	> 100	> 100	> 100	> 100	> 100	> 100	> 100	
CN(C)/C=C/c1c2c(nc3ccccc13)C(=O)c1ccccc1C2=O	7.71	4.61	4.71	9.83	4.66	4.21		5.21	7.2	3.49	5.51	6.31	0.882	4.87	4.85	9.24	3.09	2.88	
COC(=O)C1=COc2c(n(C)c3ccccc23)-c2ccccc21	> 100		> 100	> 100	> 100	> 100	> 100	> 100	> 100	> 100	> 100	> 100	> 100	> 100	> 100	> 100	> 100	> 100	> 100
O=C1CCCC2=C1CC1=C(CCCC1=O)N2c1cccc([N+](=O)[O-])c1	> 100		> 100	> 100	> 100	> 100	> 100	> 100	> 100	> 100	> 100	> 100	> 100	> 100	> 100	> 100	> 100		> 100
O=c1[nH]c(=O)n2n1C1C=CC2CC1	> 100		> 100		> 100	> 100	> 100	> 100	> 100	> 100	> 100	> 100	> 100	> 100	> 100	> 100	> 100	> 100	> 100
O=C1C2CC=CCC2C(=O)N1n1c(Cc2ccccc2)n[nH]c1=O (configuration not stated)	> 100	> 100	> 100	> 100	> 100	> 100	> 100	> 100	> 100	> 100	> 100	> 100	> 100	> 100	> 100	> 100	> 100	> 100	
CCn1c(=O)c2c3cc(OC(C)=O)ccc3oc2c2ccc(OC(C)=O)cc21	> 100	> 100	> 100	> 100	> 100	> 100	> 100	> 100	83		> 100	> 100	> 100	> 100	> 100	83	> 100	72	

Reference: PubChem BioAssay (NCI)
